According to patent US10300065B2, “Method of treating or prevention of atherothrombotic events in patients with history of myocardial infarction” (ASTRAZENECA AB, priority 2015, dated 2019):

System: patients with a history of myocardial infarction
Assay: PEGASUS-TIMI 54 analysis by time from P2Y12 inhibitor withdrawal to randomization
Conditions: for absolute reduction in the risk of a subsequent atherothrombotic event / reduction in the risk of developing a subsequent atherothrombotic event: 60 mg and 90 mg pooled; for All-cause mortality, HR / Cor. heart dis. death, HR / Fatal bleeding, HR / Intracranial bleeding, HR / Myocardial infarction, HR / Stroke, HR / TIMI Major Bleeding, HR / TIMI Major or Minor Bleeding, HR / All-cause mortality, (%) / Cor. heart dis. death, (%) / Fatal bleeding, (%) / Intracranial bleeding, (%) / Myocardial infarction, (%) / Stroke, (%) / TIMI Major Bleeding, (%) / TIMI Major or Minor Bleeding, (%): at 3 years
From the text: Patients in PEGASUS-TIMI 54 were further categorized by time from last P2Y12 inhibitor (days: ≤30 days, 31-360, >360).

[1] = between 31 days and one year following withdrawal
[2] = within 30 days following withdrawal of dual antiplatelet therapy
[3] = >1 year from P2Y12 inhibitor withdrawal, ticagrelor 60 mg bid vs. placebo
[4] = >1 year from P2Y12 inhibitor withdrawal, ticagrelor 60 mg bid
[5] = >1 year from P2Y12 inhibitor withdrawal, ticagrelor 90 mg bid vs. placebo
[6] = >1 year from P2Y12 inhibitor withdrawal, ticagrelor 90 mg bid
[7] = >1 year from P2Y12 inhibitor withdrawal, ticagrelor pooled vs. placebo
[8] = >1 year from P2Y12 inhibitor withdrawal, ticagrelor pooled
[9] = >30 days to ≤1 year from P2Y12 inhibitor withdrawal, ticagrelor 60 mg bid vs. placebo
[10] = >30 days to ≤1 year from P2Y12 inhibitor withdrawal, ticagrelor 60 mg bid
[11] = >30 days to ≤1 year from P2Y12 inhibitor withdrawal, ticagrelor 90 mg bid vs. placebo
[12] = >30 days to ≤1 year from P2Y12 inhibitor withdrawal, ticagrelor 90 mg bid

CCCSc1nc(N[C@@H]2C[C@H]2c2ccc(F)c(F)c2)c2nnn([C@@H]3C[C@H](OCCO)[C@@H](O)[C@H]3O)c2n1 [Ticagrelor, (1S,2S,3R,5S)-3-[7-{[(1R,2S)-2-(3,4-difluorophenyl)cyclopropyl]amino}-5-(propylthio)-3H-[1,2,3]-triazolo[4,5-d]pyrimidin-3-yl]-5-(2-hydroxyethoxy)cyclopentane-1,2-diol]
absolute reduction in the risk of a subsequent atherothrombotic event [1]: 1.1% | reduction in the risk of developing a subsequent atherothrombotic event [1]: 14% | absolute reduction in the risk of a subsequent atherothrombotic event [2]: 2.2% | reduction in the risk of developing a subsequent atherothrombotic event [2]: 27% | All-cause mortality, HR [3]: 1.34 | Cor. heart dis. death, HR [3]: 0.96 | Fatal bleeding, HR [3]: 1.11 | Intracranial bleeding, HR [3]: 1.56 | Myocardial infarction, HR [3]: 0.95 | Stroke, HR [3]: 0.95 | TIMI Major Bleeding, HR [3]: 2.1 | TIMI Major or Minor Bleeding, HR [3]: 2.11 | All-cause mortality, (%) [4]: (4.6) % | Cor. heart dis. death, (%) [4]: (1.2) % | Fatal bleeding, (%) [4]: (0.1) % | Intracranial bleeding, (%) [4]: (0.6) % | Myocardial infarction, (%) [4]: (4.1) % | Stroke, (%) [4]: (1.2) % | TIMI Major Bleeding, (%) [4]: (1.9) % | TIMI Major or Minor Bleeding, (%) [4]: (2.3) % | All-cause mortality, HR [5]: 1.31 | Cor. heart dis. death, HR [5]: 0.77 | Intracranial bleeding, HR [5]: 1.42 | Myocardial infarction, HR [5]: 0.84 | Stroke, HR [5]: 1.13 | TIMI Major Bleeding, HR [5]: 3.28 | TIMI Major or Minor Bleeding, HR [5]: 3.82 | All-cause mortality, (%) [6]: (4.7) % | Cor. heart dis. death, (%) [6]: (1.1) % | Fatal bleeding, (%) [6]: (0) % | Intracranial bleeding, (%) [6]: (0.5) % | Myocardial infarction, (%) [6]: (3.6) % | Stroke, (%) [6]: (1.5) % | TIMI Major Bleeding, (%) [6]: (3) % | TIMI Major or Minor Bleeding, (%) [6]: (4.4) % | All-cause mortality, HR [7]: 1.32 | Cor. heart dis. death, HR [7]: 0.86 | Fatal bleeding, HR [7]: 0.57 | Intracranial bleeding, HR [7]: 1.48 | Myocardial infarction, HR [7]: 0.9 | Stroke, HR [7]: 1.04 | TIMI Major Bleeding, HR [7]: 2.67 | TIMI Major or Minor Bleeding, HR [7]: 2.94 | All-cause mortality, (%) [8]: (4.6) % | Cor. heart dis. death, (%) [8]: (1.2) % | Fatal bleeding, (%) [8]: (0) % | Intracranial bleeding, (%) [8]: (0.6) % | Myocardial infarction, (%) [8]: (3.9) % | Stroke, (%) [8]: (1.3) % | TIMI Major Bleeding, (%) [8]: (2.4) % | TIMI Major or Minor Bleeding, (%) [8]: (3.5) % | All-cause mortality, HR [9]: 0.76 | Cor. heart dis. death, HR [9]: 0.70 | Fatal bleeding, HR [9]: 0.87 | Intracranial bleeding, HR [9]: 1.97 | Myocardial infarction, HR [9]: 0.88 | Stroke, HR [9]: 0.82 | TIMI Major Bleeding, HR [9]: 2.94 | TIMI Major or Minor Bleeding, HR [9]: 3.07 | All-cause mortality, (%) [10]: (3.8) % | Cor. heart dis. death, (%) [10]: (1.4) % | Fatal bleeding, (%) [10]: (0.3) % | Intracranial bleeding, (%) [10]: (0.6) % | Myocardial infarction, (%) [10]: (4.6) % | Stroke, (%) [10]: (1.4) % | TIMI Major Bleeding, (%) [10]: (2.7) % | TIMI Major or Minor Bleeding, (%) [10]: (3.8) % | All-cause mortality, HR [11]: 1.01 | Cor. heart dis. death, HR [11]: 0.71 | Fatal bleeding, HR [11]: 0.24 | Intracranial bleeding, HR [11]: 1.63 | Myocardial infarction, HR [11]: 0.82 | Stroke, HR [11]: 1.02 | TIMI Major Bleeding, HR [11]: 2.85 | TIMI Major or Minor Bleeding, HR [11]: 3.17 | All-cause mortality, (%) [12]: (4.8) % | Cor. heart dis. death, (%) [12]: (1.4) % | Fatal bleeding, (%) [12]: (0.1) % | Intracranial bleeding, (%) [12]: (0.5) % | Myocardial infarction, (%) [12]: (4.2) % | Stroke, (%) [12]: (1.9) %
